According to patent US7998935B2, “Quinaldine based semisquaraines and squaraine dyes, process for preparation thereof and use thereof” (Council of Scientific and Industrial Research, priority 2006, dated 2011):

Key:
[1] = Absorption and fluorescence emission spectra (photophysical properties); format: physicochemical
Description: Semisquaraine of the general formula 1 in which a quinaldine moiety is linked to the squaric acid through methylene bridge have absorption around 480 nm with high molar extinction coefficient (4.0×10^4 M^−1 cm^−1) which depends on the substitution on the quanaldine unit. […] The absorption and fluorescence emission spectra of representative semisquaraine of the general formula 1 where X=OH, Y=H, Z=H, R^2=CH3 are shown in FIG. 1.
Similar to the semisquaraines the absorption spectra of these dyes were also dependent on the substitution on the quinaldine moiety. […] The presence of electron withdrawing groups in the quinaldine ring shifts the absorption maxima towards the blue region. […] The absorption and fluorescence emission spectra of representative symmetrical squaraine dye of the general formula 2, where X=I, Y=H, R^2=CH3 are shown in FIG. 2.
The absorption and fluorescence emission spectra of representative unsymmetrical squaraine dyes of the general formula 3, where X=C6H11O6, Y=H, Q=I, Z=H, R^2=CH3, are shown in FIG. 4.

[2] = tested on: L1210 mouse lymphoma cells; assay: Photocytotoxicity of squaraine dyes with and without visible light (cell survival / proliferation); format: cell-based; settings: for toxicity in the dark: absence of light; for photocytotoxicity (% of cell survival with increasing concentration of dye): under illumination (visible light, 1000 W halogen lamp), on ice
Protocol: FIG. 5: Photocytotoxicity of the squaraine dyes of general formula 2, where X=I, Y=H, R^2=CH3, and general formula 3, where X=OH, Y=H, Q=I, Z=H, R^2=CH3 in L1210 mouse lymphoma cells. Data gives the number of cell (% of controls) counted after 48 h after the treatment for 22.5 min at 0° C. with various concentrations of the squaraine dyes under dark and under irradiation. Data points represent the mean of three independent experiments (±SD).
FIG. 6: Photocytotoxicity of the sugar linked and cholesterol-squaraine dyes of general formula 3, where X=C6H11O6, Y=H, Q=I, Z=H, R^2=CH3 and where X=C27H43O3, Y=H, Q=I, Z=H, R^2=CH3 L1210 mouse lymphoma cells. Data gives the number of cell (% of controls) counted after 48 h after the treatment for 22.5 min at 0° C. with various concentrations of the squaraine derivatives under dark and under irradiation. Data points represent the mean of three independent experiments (±SD).
In order to analyze the cytotoxicity of the squaraine dyes of the general formula 2 wherein X=I, Y=H, R^2=CH3 and 3 wherein X=OH, Y=H, Q=I, Z=H, R^2=CH3, with and without visible light, the cloning efficiencies of L1210 mouse lymphoma cells exposed to various concentrations of the dyes were determined. The light exposure was carried out from a 1000 W halogen lamp at a distance of 33 cm in Ca^2+ and Mg^2+ free PBS (140 mM NaCl, 3 mM KCl, 8 mM […], pH 7.4) on ice (10^6 cells/mL). Illumination for 10 min corresponds to 225 kJ/m^2 between 400 and 800 nm. The cells were pelleted by centrifugation and resuspended in PBSG three times. The cells were resuspended at 3×10^4 cells/mL in fresh medium at 37° C. and the numbers of cells were counted repeatedly for 60 h. From the exponential part of the growth curves (between 24 and 60 h) the number of proliferating cells at the time of resuspension was calculated by extrapolation. Cell survival was defined as the ratio between proliferating and resuspended cells. Results obtained with representative quinaldine based squaraine dyes of the general formula 2 wherein X=I, Y=H, R^2=CH3 and 3 wherein X=OH, Y=H, Q=I, Z=H, are shown in FIG. 5.
The cytotoxicity induced by squaraine dyes of the general formula 3 wherein X=C6H11O6, Y=H, Q=I, Z=H, R^2=CH3 and X=C27H43O3, Y=H, Q=I, Z=H, R^2=CH3 in mouse lymphoma cells L1210 with and without visible light, was carried out as explained in EXAMPLE 8. Results obtained with representative quinaldine based squaraine dyes of the general formula 3 wherein X=C6H11O6, Y=H, Q=I, Z=H, R^2=CH3 and X=C27H43O3, Y=H, Q=I, Z=H, R^2=CH3 are shown in FIG. 6.

mammalian AS52 cells = assay: Cytotoxicity in the presence and absence of light; format: cell-based
Description: In the present invention, we have investigated the cytotoxicity of these dyes in mammalian AS52 cells both in the presence and absence of light.

| SMILES | absorption maxima ([1]; in methanol) [nm] | toxicity in the dark [2] | photocytotoxicity (% of cell survival with increasing concentration of dye) [2] | further results |
| --- | --- | --- | --- | --- |
| CCCCOc1c(C=C2C=Cc3cc(OCC)ccc3N2C)c(=O)c1=O | 478 |  |  |  |
| CCCCOc1c(C=C2C=Cc3cc(O)ccc3N2C)c(=O)c1=O | 477 |  |  |  |
| CN1/C(=C/C2=C([O-])C(=C\c3ccc4cc(I)ccc4[n+]3C)/C2=O)C=Cc2cc(I)ccc21 |  | less toxic in the dark | dose dependent photocytotoxicity | absorption maxima ([1]; in DMSO): around 750 nm; emission maxima ([1]; in dimethyl sulfoxide (DMSO)): around 772 nm |
| CN1/C(=C/C2=C([O-])C(=C\c3ccc4cc(O[C@@H]5O[C@H](CO)[C@@H](O)[C@H](O)[C@H]5O)ccc4[n+]3C)/C2=O)C=Cc2cc(I)ccc21 |  | very less toxicity in the absence of light | dose dependent photocytotoxicity | cytotoxicity compared with diiodo squaraine dye of general formula 2 (X=I) (mammalian AS52 cells): more cytotoxic; cytotoxicity compared with hydroxyl-substituted squaraine dye of general formula 3 (X=OH) (mammalian AS52 cells): significantly high |
| CN1/C(=C/C2=C([O-])C(=C\c3ccc4cc(O)ccc4[n+]3C)/C2=O)C=Cc2cc(I)ccc21 |  | less toxic in the dark | dose dependent photocytotoxicity |  |
